Reference: paper PMC4890880 (ACS infectious diseases, 2016)

tested on: HepG2-A16-CD81EGFP cells; details: read-out: Tox_IC50; sheet 2nd round; HepG2 cytotoxicity

SMILES	IC50
C[C@@H]1CN([C@@H](C)CO)C(=O)c2cc(N(C)C)ccc2O[C@@H](C)CCCCO[C@H]1CN(C)S(=O)(=O)c1ccc(F)cc1 [BRD-K72173400-001-01-7]	> 10 µM
COc1ccccc1-c1ccc2c(c1)[C@@H]1[C@@H](CCN1C(=O)C1CCC1)[C@H](CO)N2 [BRD-K72492940-001-01-8]	> 10 µM
N#Cc1cccc(-c2ccc3c(c2)[C@H]2[C@H](CCN2S(=O)(=O)c2ccc(F)cc2)[C@@H](CO)N3)c1 [BRD-K73006286-001-01-7]	> 10 µM
CCCNC(=O)N1[C@H](C#N)[C@H](c2ccccc2-c2cccc(C)c2)[C@@H]1CO [BRD-K74392214-001-01-7]	> 10 µM
N#C[C@H]1N[C@H](CO)[C@H]1c1ccc(C#CC2CCCCC2)cc1 [BRD-K74656908-001-01-6]	> 10 µM
C[C@H](CO)N1C[C@H](C)[C@H](CN(C)C(=O)Nc2ccc(C(F)(F)F)cc2)Oc2c(NC(=O)c3ccc(-c4nccs4)cc3)cccc2C1=O [BRD-K74949371-001-01-3]	> 10 µM
OC[C@@H]1[C@H](c2ccc(-c3ccc(F)cc3)cc2)[C@@H](CNC2CCCC2)N1CCC(F)(F)F [BRD-K76178468-001-01-1]	> 10 µM
C[C@H](CO)N1C[C@H](C)[C@H](CN(C)C(=O)C2CCCCC2)Oc2ncc(C#Cc3cccc(F)c3)cc2C1=O [BRD-K77264696-001-01-2]	> 10 µM
C[C@@H]1CCCCO[C@@H](CN(C)C(=O)Nc2cccc3ccccc23)[C@H](C)CN([C@H](C)CO)C(=O)c2cc(NC(=O)CCC(F)(F)F)ccc2O1 [BRD-K78692607-001-01-1]	> 10 µM
COc1ccc(NC(=O)N2CCCCN3[C@H](CN(C)C)[C@H](c4ccc(C#Cc5ccccc5)cc4)[C@@H]3C2)cc1 [BRD-K78727929-001-08-1]	8.47 µM
N#C[C@H]1N[C@H](CO)[C@H]1c1ccc(C#Cc2ccccc2F)cc1 [BRD-K80648041-001-01-3]	> 10 µM
COc1ccc(NC(=O)N2CCCCN3[C@H](CO)[C@H](c4ccc(C#Cc5ccccc5)cc4)[C@@H]3C2)cc1 [BRD-K83953444-001-02-5]	> 10 µM
O=C(Nc1ccccc1F)N1CCCCN2[C@H](CO)[C@H](c3ccc(/C=C/c4ccccc4)cc3)[C@@H]2C1 [BRD-K85670919-001-01-1]	> 10 µM
O=C(NCC[C@H]1CC[C@H](NC(=O)c2ccccc2F)[C@@H](CO)O1)c1cnccn1 [BRD-K85850546-001-01-0]	> 10 µM
N#C[C@H]1[C@@H](c2ccc(-c3cccnc3)cc2)[C@@H](CO)N1C(=O)Nc1ccc(F)cc1 [BRD-K86354270-001-02-2]	> 10 µM
COc1ccccc1C#Cc1ccc([C@H]2[C@@H](C#N)N(C(=O)C3CCCCC3)[C@H]2CO)cc1 [BRD-K87117984-001-01-1]	9.79 µM
C[C@@H]1CCCCO[C@@H](CN(C)S(=O)(=O)c2ccccc2)[C@H](C)CN([C@H](C)CO)C(=O)c2cc(NC(=O)Nc3ccc4c(c3)OCO4)ccc2O1 [BRD-K87351697-001-01-4]	> 10 µM

same assay, conditions: read-out: Tox_IC50; sheet "2nd round", HepG2 cytotoxicity

SMILES	IC50
O=C(C[C@H]1CC[C@@H]2[C@H](COC[C@H](O)CN2Cc2ccc(C(F)(F)F)cc2)O1)N1CCc2ccccc2C1 [BRD-K49087010-001-01-1]	9.12 µM
O=C(Nc1ccccc1F)N1CCCCN2[C@H](CO)[C@@H](c3ccc(/C=C/c4ccccc4)cc3)[C@@H]2C1 [BRD-K50964970-001-01-5]	> 10 µM
CCCNC(=O)N1[C@H](C#N)[C@H](c2ccc(C3=CCCCC3)cc2)[C@@H]1CO [BRD-K52785744-001-01-7]	7.93 µM
CCCNC(=O)N1[C@H](C#N)[C@H](c2ccc(C#Cc3ccc(F)cc3)cc2)[C@@H]1CO [BRD-K61371184-001-01-2]	> 10 µM
Fc1cccc(CN2C[C@@H]3N[C@H](C2)C3c2ccc(/C=C/c3ccccc3)cc2)c1 (stereo partly drawn) [BRD-K69682028-019-01-6]	> 10 µM
C[C@H](CO)N1C[C@H](C)[C@@H](CN(C)Cc2ccccc2)Oc2c(NC(=O)Cc3cn(C)c4ccccc34)cccc2C1=O [BRD-K71196168-001-01-1]	> 10 µM
CCCNC(=O)N1[C@H](C#N)[C@H](c2ccc(-c3cccc(OC)c3)cc2)[C@@H]1CO [BRD-K80906650-001-01-7]	> 10 µM

same assay, conditions: sheet 2nd round; maximal inhibition in dose response

SMILES	Tox_max_inhibition (%)
C[C@@H]1CN([C@@H](C)CO)C(=O)c2cc(N(C)C)ccc2O[C@@H](C)CCCCO[C@H]1CN(C)S(=O)(=O)c1ccc(F)cc1 [BRD-K72173400-001-01-7]	6%
COc1ccccc1-c1ccc2c(c1)[C@@H]1[C@@H](CCN1C(=O)C1CCC1)[C@H](CO)N2 [BRD-K72492940-001-01-8]	18%
N#Cc1cccc(-c2ccc3c(c2)[C@H]2[C@H](CCN2S(=O)(=O)c2ccc(F)cc2)[C@@H](CO)N3)c1 [BRD-K73006286-001-01-7]	15%
CCCNC(=O)N1[C@H](C#N)[C@H](c2ccccc2-c2cccc(C)c2)[C@@H]1CO [BRD-K74392214-001-01-7]	7.44%
N#C[C@H]1N[C@H](CO)[C@H]1c1ccc(C#CC2CCCCC2)cc1 [BRD-K74656908-001-01-6]	6%
C[C@H](CO)N1C[C@H](C)[C@H](CN(C)C(=O)Nc2ccc(C(F)(F)F)cc2)Oc2c(NC(=O)c3ccc(-c4nccs4)cc3)cccc2C1=O [BRD-K74949371-001-01-3]	6.39%
OC[C@@H]1[C@H](c2ccc(-c3ccc(F)cc3)cc2)[C@@H](CNC2CCCC2)N1CCC(F)(F)F [BRD-K76178468-001-01-1]	22%
C[C@H](CO)N1C[C@H](C)[C@H](CN(C)C(=O)C2CCCCC2)Oc2ncc(C#Cc3cccc(F)c3)cc2C1=O [BRD-K77264696-001-01-2]	30%
C[C@@H]1CCCCO[C@@H](CN(C)C(=O)Nc2cccc3ccccc23)[C@H](C)CN([C@H](C)CO)C(=O)c2cc(NC(=O)CCC(F)(F)F)ccc2O1 [BRD-K78692607-001-01-1]	10%
COc1ccc(NC(=O)N2CCCCN3[C@H](CN(C)C)[C@H](c4ccc(C#Cc5ccccc5)cc4)[C@@H]3C2)cc1 [BRD-K78727929-001-08-1]	100%
N#C[C@H]1N[C@H](CO)[C@H]1c1ccc(C#Cc2ccccc2F)cc1 [BRD-K80648041-001-01-3]	11%
COc1ccc(NC(=O)N2CCCCN3[C@H](CO)[C@H](c4ccc(C#Cc5ccccc5)cc4)[C@@H]3C2)cc1 [BRD-K83953444-001-02-5]	55%
O=C(Nc1ccccc1F)N1CCCCN2[C@H](CO)[C@H](c3ccc(/C=C/c4ccccc4)cc3)[C@@H]2C1 [BRD-K85670919-001-01-1]	13%
O=C(NCC[C@H]1CC[C@H](NC(=O)c2ccccc2F)[C@@H](CO)O1)c1cnccn1 [BRD-K85850546-001-01-0]	9%
N#C[C@H]1[C@@H](c2ccc(-c3cccnc3)cc2)[C@@H](CO)N1C(=O)Nc1ccc(F)cc1 [BRD-K86354270-001-02-2]	14%
COc1ccccc1C#Cc1ccc([C@H]2[C@@H](C#N)N(C(=O)C3CCCCC3)[C@H]2CO)cc1 [BRD-K87117984-001-01-1]	57%
C[C@@H]1CCCCO[C@@H](CN(C)S(=O)(=O)c2ccccc2)[C@H](C)CN([C@H](C)CO)C(=O)c2cc(NC(=O)Nc3ccc4c(c3)OCO4)ccc2O1 [BRD-K87351697-001-01-4]	5%

same assay, conditions: sheet "2nd round"

SMILES	Tox_max_inhibition (%)
O=C(C[C@H]1CC[C@@H]2[C@H](COC[C@H](O)CN2Cc2ccc(C(F)(F)F)cc2)O1)N1CCc2ccccc2C1 [BRD-K49087010-001-01-1]	60%
O=C(Nc1ccccc1F)N1CCCCN2[C@H](CO)[C@@H](c3ccc(/C=C/c4ccccc4)cc3)[C@@H]2C1 [BRD-K50964970-001-01-5]	8%
CCCNC(=O)N1[C@H](C#N)[C@H](c2ccc(C3=CCCCC3)cc2)[C@@H]1CO [BRD-K52785744-001-01-7]	50%
CCCNC(=O)N1[C@H](C#N)[C@H](c2ccc(C#Cc3ccc(F)cc3)cc2)[C@@H]1CO [BRD-K61371184-001-01-2]	22%
Fc1cccc(CN2C[C@@H]3N[C@H](C2)C3c2ccc(/C=C/c3ccccc3)cc2)c1 (stereo partly drawn) [BRD-K69682028-019-01-6]	16%
C[C@H](CO)N1C[C@H](C)[C@@H](CN(C)Cc2ccccc2)Oc2c(NC(=O)Cc3cn(C)c4ccccc34)cccc2C1=O [BRD-K71196168-001-01-1]	44%
CCCNC(=O)N1[C@H](C#N)[C@H](c2ccc(-c3cccc(OC)c3)cc2)[C@@H]1CO [BRD-K80906650-001-01-7]	45%
